The values that follow are results of earlier work, collected in patent US5994374A, “Substituted 1-indolylpropyl-4-benzyl-tetrahydropyridine derivatives” (Merck Sharp & Dohme Ltd., priority 1995, dated 1999).

This series concerns human 5-HT1Dα and 5-HT1Dβ receptor subtypes. To be noted: cf. WO-A-91/17174, Table 1.

`CNS(=O)(=O)Cc1ccc2[nH]cc(CCN(C)C)c2c1` [sumatriptan]: the “discrimination between the human 5-HT1Dα and 5-HT1Dβ receptor subtypes” value is “barely discriminates”.
